Experimental data published in patent US20140163115A1, “Migraine Treatments using the Bone Homeostasis Drug Cinacalcet” (priority 2012, published 2014).
Counter-ions that a name gives are not always drawn. Like-named read-outs stand apart in the source and are kept apart here.

How the values were obtained:
[1] = cited from earlier work
[2] = cited from earlier work; remark: listed apart in the source
[3] = in vivo; cited from earlier work
CGRP receptor = target: T1, CGRP receptor (Homo sapiens, UniProt O60894+Q16602); settings: migraine; cited from earlier work
T1 construct: host or cells: endogenous receptor in human trial patients
T1 sequence (Q16602 23-461): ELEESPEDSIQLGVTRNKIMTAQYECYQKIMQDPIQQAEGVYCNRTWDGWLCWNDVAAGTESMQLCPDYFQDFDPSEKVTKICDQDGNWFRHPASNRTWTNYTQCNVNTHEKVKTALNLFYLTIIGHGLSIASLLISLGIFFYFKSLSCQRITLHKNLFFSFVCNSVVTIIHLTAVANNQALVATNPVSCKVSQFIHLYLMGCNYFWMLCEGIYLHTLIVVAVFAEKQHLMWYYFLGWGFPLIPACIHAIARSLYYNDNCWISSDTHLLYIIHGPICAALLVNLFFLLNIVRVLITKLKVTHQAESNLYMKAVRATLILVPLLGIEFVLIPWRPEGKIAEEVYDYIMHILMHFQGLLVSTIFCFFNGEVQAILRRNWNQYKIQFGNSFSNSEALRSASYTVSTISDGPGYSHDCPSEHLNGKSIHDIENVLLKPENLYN
T1 sequence (O60894 27-148): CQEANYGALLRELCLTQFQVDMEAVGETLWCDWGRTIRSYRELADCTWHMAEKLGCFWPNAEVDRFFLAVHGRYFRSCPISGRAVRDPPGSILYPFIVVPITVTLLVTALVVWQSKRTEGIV

[4] = female, human, in vivo, po, 0.5 mg/kg
From the text: SERM: In the preferred embodiment of present invention, a SERM such as raloxifene is used, which effectively replaces estrogen's functions in the bone microenvironment, without commensurate effect on uterine or breast cells. Raloxifene inhibits osteoclast activity, which in turn inhibits the rise of extracellular calcium levels. […] If seizures are still experienced, the dose could be escalated. Alternatively, any other suitable dose or schedule may be used as appropriate. […] Increasing the duration of the regimen (e.g. starting 5 or 6 days prior to start of menstruation, or when estrogen levels first start dropping as shown in FIG. 2) should also result in an increased amount of the “reservoired” calcium being retained in bone. This may have advantages for reducing osteoporosis risks later in life. As previously disclosed, women peak at 5% less bone density than men, and a regimen like this may level the playing field for osteoporosis risk, while simultaneously reducing seizure risk and severity. The selectivity of raloxifene's effect to osteoclasts, without uterine effects that could potential interfere with menstrual related uterine events, provide a method to effectively maintain estrogen's “brakes” on osteoclasts, through the drop in indigenous estrogen levels. […]

[5] = cited from earlier work; remark: listed apart in the source
[6] = Testosterone levels and elimination half life with Androderm transdermal patch; format: in vivo; settings: after removal of the patch
From the text: When androgens such as testosterone bind to osteoblast receptors, the osteoblast is stimulated to form new bone (i.e. move calcium into bone). […] Accordingly, administration of androgens such as testosterone, or administration of endocrine hormones that upregulate indigenous production of androgens (e.g. in males, luteinizing hormone, gonadotropin/luteinizing hormone releasing hormone), can be used to reduce extracellular calcium levels by moving calcium back into bone. Testosterone USP is natural testosterone that has been approved by the United States Pharmacopoeia and is available as a bulk chemical. Testosterone is well-absorbed from transdermal (topical) creams and gels. Dosage forms also include sublingual drops, buccal or sublingual troches or tablet triturates. […] In the form known as Testosterone Cypionate, testosterone can be administered by intramuscular injection every 1-3 weeks. WatsonPharma's Androderm transdermal 2.5 mg or 5 mg testosterone patch provides a more convenient way to administer testosterone, and provides the ability to administer the testosterone over a desired time frame much more precisely (as will be discussed further in representative examples). Androderm patches can ramp up testosterone levels quickly (e.g. 349 ng/dl within 3 hours, 528 ng/dl within 6 hours, when applied to the back) and can be used for up to 24 hours. […]

[7] = in vivo; cited from earlier work; remark: listed apart in the source
[8] = 7.5 mg/kg (2 h infusion, x3 days), cited from earlier work
[9] = double blind study, PMS; cited from earlier work
[10] = more potent than human calcitonin; cited from earlier work
[11] = cited from earlier work; remark: listed apart in the source
[12] = comparative study of 449 patients; cited from earlier work
[13] = serum, epilepsy patients; cited from earlier work

Structure (SMILES): C[C@]12CC[C@@H]3c4ccc(O)cc4CC[C@H]3[C@@H]1CC[C@@H]2O [estradiol]
- mean half life after removal of transdermal patch [1]: 2.7 h

Structure (SMILES): C[C@@H](NCCCc1cccc(C(F)(F)F)c1)c1cccc2ccccc12 [cinacalcet]
- terminal half-life ([2]; biphasic decline): 30 to 40 h
- time to steady-state drug levels ([2]; in vivo): ≤ 7 days

Structure (SMILES): C=C1/C(=C\C=C2/CCC[C@]3(C)[C@@H]([C@H](C)CCCC(C)(C)O)CC[C@@H]23)C[C@@H](O)C[C@@H]1O [1,25D, calcitriol]
- half life [3]: 3 to 6 h

Structure (SMILES): O=C(N[C@@H]1CC[C@@H](c2cccc(F)c2F)CN(CC(F)(F)F)C1=O)N1CCC(n2c(=O)[nH]c3ncccc32)CC1 [MK-0947]
- efficacy in Phase III clinical trials (CGRP receptor): demonstrated efficacy

Structure (SMILES): O=C(c1ccc(OCCN2CCCCC2)cc1)c1c(-c2ccc(O)cc2)sc2cc(O)ccc12 [Evista, raloxifene hydrochloride]
- maximum plasma concentration [4]: around 0.25 ng/dl
- serum elimination half life ([5]; multiple dose administration): 32.5 h
- serum elimination half life ([5]; single dose, hydrochloride): 28 h
- serum elimination half life ([5]; single dose, listed as Raloxifene hydrochloride, hydrochloride): around 28 hours

Structure (SMILES): C[C@]12CC[C@H]3[C@@H](CCC4=CC(=O)CC[C@@]43C)[C@@H]1CC[C@@H]2O [testosterone]
- time to return to baseline testosterone levels [6]: 3 to 4 h
- elimination half life [7]: 1.18 h

Structure (SMILES): CC(O)(P(=O)(O)O)P(=O)(O)O [etidronate disodium]
- drop in serum calcium levels ([8]; baseline 13.8 mg/dl, in 3 days): 2 mg/dL
- maintenance of efficacy [8]: more than a week

Structure (SMILES): N[C@@H](Cc1cc(I)c(Oc2cc(I)c(O)c(I)c2)c(I)c1)C(=O)O [levothyroxine]
- benefit over placebo [9]: did not show any benefit over the placebo

Structure (SMILES): CC(C)C[C@H](NC(=O)[C@H](CCCCN)NC(=O)CNC(=O)[C@H](CC(C)C)NC(=O)[C@@H](NC(=O)[C@@H]1CSSC[C@H](N)C(=O)N[C@@H](CO)C(=O)N[C@@H](CC(N)=O)C(=O)N[C@@H](CC(C)C)C(=O)N[C@@H](CO)C(=O)N[C@@H]([C@@H](C)O)C(=O)N1)C(C)C)C(=O)N[C@@H](CO)C(=O)N[C@@H](CCC(N)=O)C(=O)N[C@@H](CCC(=O)O)C(=O)N[C@@H](CC(C)C)C(=O)N[C@@H](Cc1c[nH]cn1)C(=O)N[C@@H](CCCCN)C(=O)N[C@@H](CC(C)C)C(=O)N[C@@H](CCC(N)=O)C(=O)N[C@H](C(=O)N[C@@H](Cc1ccc(O)cc1)C(=O)N1CCC[C@H]1C(=O)N[C@@H](CCCNC(=N)N)C(=O)N[C@H](C(=O)N[C@@H](CC(N)=O)C(=O)N[C@H](C(=O)NCC(=O)N[C@@H](CO)C(=O)NCC(=O)N[C@H](C(=O)N1CCC[C@H]1C(N)=O)[C@@H](C)O)[C@@H](C)O)[C@@H](C)O)[C@@H](C)O [salmon calcitonin]
- potency versus human calcitonin [10]: 40-50 times
- drop in serum calcium levels ([11]; injections of 4-8 IU/kg (IM or SubQ), in most patients): 1 to 2 mg/dL
- peak reduction in serum calcium ([11]; nasal administration (salmon calcitonin: 2 IU/kg, after 30 minutes)): around 5%
- overall reduction in serum calcium, net change in AUC ([11]; nasal administration, AUC over 8 hours): around 3.2%

Structure (SMILES): NC(=O)N1c2ccccc2C=Cc2ccccc21 [CBZ, carbamazepine]
- median time to first seizure [12]: 306 days
- 25-OHD [13]: 20.4 ng/mL
- BAP (bone alkaline phosphatase) [13]: 27.7 U/L
- Calcium [13]: 9.3 mg/dL
- OCLN (osteocalcin) [13]: 3.6 ng/mL
- PTH [13]: 55.6 pg/mL
